Experimental data: ChEMBL document CHEMBL1156944, “Efficient microwave-assisted prenylation of pinostrobin and biological evaluation of its derivatives as antitumor agents” (Bioorg Med Chem Lett, 2010)

What was measured:
Format in all cases: functional, cell-based
[1] = Cytotoxicity against human COLO320DM cells after 72 hrs by WST-8 assay; details: COLO 320DM
SK-BR-3 = test: Cytotoxicity against human SK-BR-3 cells after 72 hrs by WST-8 assay; details: SK-BR-3, 72 h
MCF7 = test: Cytotoxicity against human MCF7 cells after 72 hrs by WST-8 assay; details: MCF7, 72 h
PC-3 = test: Cytotoxicity against human PC3 cells after 72 hrs by WST-8 assay; details: PC-3, 72 h

**Q.** Which IC50 [1] does the source give for `COc1cc(O)c2c(c1CC=C(C)C)OC(c1ccccc1)CC2=O` (configuration not stated) here?
**A.** 24.2 µM

**Q.** And the IC50 (SK-BR-3)?
**A.** 34.4 µM

**Q.** What about the IC50 (MCF7) of the same molecule?
**A.** 30.3 µM

**Q.** And the IC50 (PC-3)?
**A.** 35.3 µM

**Q.** With `COc1cc2c(c3c1C(C)(C)C(C)O3)C(=O)CC(c1ccccc1)O2` (configuration not stated) as the molecule, how does the IC50 [1] read?
**A.** 18.6 µM

**Q.** And the IC50 (SK-BR-3)?
**A.** 14 µM

**Q.** And the IC50 (MCF7)?
**A.** 29.5 µM

**Q.** And the IC50 (PC-3)?
**A.** 10.4 µM

**Q.** With `COc1cc(O)c2c(c1)O[C@H](c1ccccc1)CC2=O` [PINOSTROBIN] as the molecule, how does the IC50 [1] read?
**A.** > 100 µM

**Q.** And the IC50 (SK-BR-3)?
**A.** 94.3 µM

**Q.** And the IC50 (MCF7)?
**A.** 84.9 µM

**Q.** And the IC50 (PC-3)?
**A.** 86.7 µM
